Among the data in ChEMBL document CHEMBL1132527, “Synthesis, structural characterization and antitumor activity evaluations of copper complex with tetraazamacrocyclic ligand” (Bioorg Med Chem Lett, 1999) are inhibition values, retold here.

Type in all cases: functional, cell-based
In assay [1] the test system is BEL-7404 tumor cell line. Put plainly: In vitro antitumor activity against BEL-7404 tumor cell lines at 10e-6 mol/L conentation. The following applies: Homo sapiens.
The test system of assay [2] is BEL-7404 tumor cell line. In words: In vitro antitumor activity against BEL-7404 tumor cell lines at 10e-8 mol/L conentation. The following applies: Homo sapiens.
The test system of assay [3] is BEL-7404 tumor cell line. Put plainly: In vitro antitumor activity against BEL-7404 tumor cell lines at 10e-5 mol/L conentation. The following applies: Homo sapiens.
The subject of assay [4] is P388. Put plainly: In vitro antitumor activity against P388 tumor cell lines at 10e-4 mol/L conentation. The following applies: Mus musculus.
Assay [5] deals with P388. Put plainly: In vitro antitumor activity against P388 tumor cell lines at 10e-5 mol/L conentation. The following applies: Mus musculus.
Assay [6] relates to BEL-7404 tumor cell line. In words: In vitro antitumor activity against BEL-7404 tumor cell lines at 10e-4 mol/L conentation. The following applies: Homo sapiens.
Assay [7] has as its system BEL-7404 tumor cell line. In words: In vitro antitumor activity against BEL-7404 tumor cell lines at 10e-7 mol/L conentation. The following applies: Homo sapiens.

With “Copper complex with 1,4,7,10-tetrakis(2-cyanolethyl-)-l,4,7,10-tetraazacyclododecane”, the inhibition came out at 78% in the assay on BEL-7404 tumor cell line [1]; 10% with BEL-7404 tumor cell line [2]; 75.6% in the assay with BEL-7404 tumor cell line [3]; 100% in the assay with P388 [4]; 96.4% in the assay with P388 [5]; 63.3% in the assay on BEL-7404 tumor cell line [6]. This substance also registered an inhibition in the assay with BEL-7404 tumor cell line [7] of 5.6%.
